# Experimental data taken from US9688653B2, “Ethoxyphenyl thienyl compounds and methods for the treatment of bacterial infections” (Duke University, priority 2013, dated 2017).
# What was measured:
# [1] = system: E. coli K1 strain UTI89; experiment: microbe, parasite or virus in culture; settings: read-out: K1 phage IC50
# Source text: The ability of the […] to bind to bacterial capsule, infect, and lyse E. coli UT189 was used as the primary assay to identify the effects of screened compounds on bacterial capsule formation. The phenotypic end-point assay measured the fluorescence generated by cellular processing of Alamar Blue as a direct indicator of cell viability. A total of […] compounds were screened using the primary assay. […] Hits were further evaluated using […] secondary assays for alternative measurement of compound-induced reduction in bacterial capsule formation (secondary assays 1 and 2) and specificity (secondary assays 3 and 4). Confirmed actives with an SI>5 were further investigated and subjected to chemical optimization, followed by secondary assay evaluation. Secondary assays more closely characterized the ability of the compounds to reduce bacterial capsule formation and can be used to examine the mechanism of action of the compounds. The combination of primary assay (to measure capsule reduction), counter assay (for general eukaryotic cell toxicity) and secondary assay (to measure reduction in capsule formation and specificity) were combined to allow a determination of probe efficacy, selectivity, and specificity.
# A. Primary Assay: Screening for Inhibitors of Bacterial Capsule Biogenesis.
# Primary assay: An end-point assay to measure the amount of K1 phage-induced bacterial cell lysis was employed to determine the compound effect on capsule biogenesis. K1 bacteriophage specifically binds the bacterial capsule during the initial stages of infection. Bacteria without capsule cannot be infected and lysed by the bacteriophage. […] A total of 338,740 compounds were screened at 100 μM in the primary screen Inhibition of phage lysis was calculated relative to the mean of the bacterial (positive) control on each microtiter plate. […] For calculation of S/B/Z value, and CV, the following formulae (in which SD stands for standard deviation) were used: S/B=mean signal/mean background; Z=1-3SD of sample+3SD of control mean of sample−mean of control; % CV=(SD mean signal/mean signal)×100.
# IC50 values were calculated using a 4 parameter Levenburg-Marquardt algorithm, with the maximum and minimum locked at 0 and 100 respectively.
# Primary assay: The primary assay was conducted in the 1,536 well plate format. Bacterial cultures of E. coli K1 strain UTI89 (cystitis isolate) and isogenic capsule mutant strains (as controls for phage infection) were grown and prepared at the screening center immediately prior to use. Overnight starting cultures of UTI89 were grown at 37° C., and inoculated into 1 liter of LB (starting OD600˜0.03), which was sufficient for screening 40 plates (including ˜10% waste) and ˜40,000 compounds as single points.
# Control wells contained UTI89 (wt K1) with 0.5% DMSO as a simulated positive control; UTI89 with 0.5% DMSO and tetracycline for a negative growth control; and media plus vehicle control. 50 mL of LB Broth was inoculated with stock 150 μL E. coli UT189 and grown overnight at 37° C. The next day, cultures were diluted 1:75 in 1 L of LB Broth containing 0.5% DMSO. 3 μL of this culture was added to each plate well, and plates were incubated, inverted, at 37° C. for 2 hr. The K1F bacteriophage stock was diluted 1:8 in LB Broth containing 0.5% DMSO, and 1.5 μL of diluted phage (or media only) was added to the pre-plated test compound wells and appropriate control wells. The plates were centrifuged briefly, and then were incubated, inverted, at 37° C. for an additional 2 hr. Afterward, Alamar Blue reagent (Invitrogen, #DAL1100) was diluted 1:2 with LB broth and 1 μL was added to each plate well.
# [2] = system: E. coli K1 strain UTI89; experiment: Secondary assay 2: T7 phage-mediated lysis assay; format: cell-based, Escherichia coli; settings: read-out: T7 phage IC50
# Source text: D. Secondary Assay 2: Screening for Inhibitors of Bacterial Capsule Biogenesis—T7 Lysis Inhibition
# Purpose: This secondary assay measures the compound mechanistic specificity for inhibition of bacterial capsule formation and excludes inhibitors of phage replication using a different bacteriophage (T7). In this assay, an increase in phage-induced lysis correlates to a decrease in capsule formation.
# Purpose: This secondary assay measures the compound mechanistic specificity for inhibition of bacterial capsule formation using a different bacterial phage (T7). In this assay, an increase in phage-induced lysis correlates to a decrease in capsule formation.
# Assay Description: T7 phage-mediated lysis assay: This assay determined if the mechanism of action of the compound is inhibition of phage infectivity or replication. The T7 phage has a nearly identical genome to K1F, without encoding an endosialidase. Its cycle of replication is similar to that of K1F as well. However, T7 entry into E. coli is inhibited by K capsules. This secondary assay was conducted in the 96 well plate format. […] Compounds were added in quadruplicate to plates in a concentration dependent manner in the range of 100-0.39 μM, followed by addition of 100 μL of bacterial culture. 1% DMSO (final well concentration) was included. The plates were tape sealed and shaken vigorously for 1.5 hr. An initial OD600 reading was measured to identify compounds that cause growth retardation or bacterial killing in the absence of phage. Next, T7 phage (5 μL) was added to all of the test wells. The plates were resealed and shaken vigorously at 37° C., and measurements of OD600 for phage-mediated lysis were taken after 3 hr. True inhibitors of capsule yielded bacteria that were susceptible to T7 phage and lysed within 2 hr of the addition of phage. […] The positive control drug C7 (100 μM final well concentration) was used in this screen.
# T7 phage counter assay. This secondary assay was performed as previously described and was used to distinguish compounds with phage inhibitory effects from true polysaccharide capsule inhibitors. […] Thus, the presence of a capsule inhibits T7-mediated lysis. In this assay, an increase in phage-induced lysis correlates to a decrease in capsule formation. True inhibitors of capsule yielded bacteria that were susceptible to T7 phage and lysed within 2 hr of the addition of phage. […] The positive control molecule C7 (100 μM final well concentration) was used in this screen.
# [3] = system: Bladder carcinoma 5637 cells; experiment: Cytotoxicity counterscreen, CellTiter Glo, 72 hr; format: cell-based, human
# Description: B. Counterscreen: Cytotoxicity Screening for Potential Inhibitors of Bacterial Capsule Biogenesis.
# Purpose: This cell-based assay measures the cytotoxicity of compounds in bladder carcinoma 5637 cells using luminescent cell viability assay readout.
# Cytotoxicity assay: The cytotoxicity assay was performed as described in Section 6: Appendix. Hit cytotoxicity and the 50% toxic concentration (CC50) was determined and compared to the IC50 to calculate the selectivity index.
# Assay Description: Cytotoxicity: Dose response testing (dose range=300-0.58 μM) established the hit cytotoxicity data. Compounds were plated in 384-well microplates in a stacked dose response format using the same doses used in the efficacy dose response. Bladder carcinoma 5637 cells were added to the compounds, and 72 hr later cell viability was measured using CellTiter Glo (38). Hit cytotoxicity and the 50% toxic concentration (TC50) was determined and compared to the IC50 to calculate the therapeutic index. Test compounds are serially diluted in a plate to plate matrix or stacked plate matrix. All 320 compounds in a source plate are diluted together resulting in a 10 point dose response dilution series. It is visualized as a serial dilution series proceeding vertically through a stack of plates with the high dose plate on top and the low dose plate on the bottom.
# Control Drug: Hyamine was used as a positive cytotoxic control. All wells contained 0.5% DMSO.
# Preparation of Bladder carcinoma 5637 cells: Cells are harvested and resuspended to 80,000 cells per ml in Complete DMEM/F12®.
# Endpoint Read: Following the three day incubation period, the assay plates were equilibrated to room temperature for 30 min and an equal volume (30 μL) of Cell Titer-Glo® reagent (Promega Inc.) is added to each well using a WellMate™ (Matrix, Hudson, N.H.) and plates are incubated for an additional 10 min at room temperature. At the end of the incubation, luminescence is measured using a Perkin Elmer Envision™ multi-label reader (PerkinElmer, Wellesley, Mass.) with an integration time of 0.1 s.
# Cytotoxicity. Testing was performed essentially as previously described. Concentration-response testing was performed over a range 0.58-300 μM in a […] well plate format. Bladder carcinoma 5637 cells (ATCC HTB-9) were added to the compounds, and 72 hrs later cell viability was measured using CellTiter Glo (Promega). The 50% toxic concentration (TC50) was determined and compared to the IC50 to calculate the therapeutic index. Hyamine was used as a positive cytotoxic control. All wells contained 0.5% DMSO.
# [4] = second round of synthetic analogues, n = 3
# [5] = second round of synthetic analogues, n = 2
# [6] = first round of synthetic analogues, n = 3
# [7] = first round of synthetic analogues, n = 2
Structure (SMILES),"IC50 [1, 4] [µM]","IC50 [2, 5] [µM]",IC50 [3] [µM],"IC50 [1, 6] [µM]","IC50 [2, 7] [µM]",also measured
CCCCOc1ccc(-c2cc(NC(=O)c3cc(Br)c(Br)o3)c(C(=O)O)s2)cc1 [compound 56643019],23.3,1.25 to 2.5,31.7,,,
O=C(Nc1cc(-c2ccc(OC(F)(F)F)cc2)sc1C(=O)O)c1cccc(F)c1 [compound 53495056],,,52.1,> 100,> 5,
CC(C)c1ccc(-c2cc(NC(=O)c3cc4ccccc4o3)c(C(=O)O)s2)cc1 [compound 53470434],,,47.2,42.9,2.71,
Cc1ccc(C(=O)Nc2cc(-c3ccccc3)sc2C(=O)O)s1 [compound 17546665],,,63.6,,,"IC50 ([1]; purchased analogue series, n = 3): > 100 µM; IC50 ([2]; purchased analogue series, n = 2): 29.7 µM"
CCCc1ccc(-c2cc(NC(=O)c3c(F)cccc3F)c(C(=O)O)s2)cc1 [compound 56643016],2.63,< 0.625,54.9,,,
COc1ccc(-c2cc(NC(=O)c3cccc(F)c3)c(C(=O)O)s2)cc1 [compound 53470445],,,44.8,> 100,8.36,
CC(C)(C)c1ccc(-c2cc(NC(=O)c3c(F)cccc3F)c(C(=O)O)s2)cc1 [compound 53470433],,,35.1,11.5,1.64,
O=C(Nc1cc(-c2ccc(OCCC(F)(F)F)cc2)sc1C(=O)O)c1ccc(Br)o1 [CID 56643022],,,41.7,,,IC50 ([1]; five probe analogues): 0.84 µM; IC50 ([2]; five probe analogues): < 0.625 µM
O=C(O)c1sc(-c2ccc(OCC(F)(F)F)cc2)cc1NC(=O)c1c(F)cccc1F [compound 56643002],2.86,< 0.625,75.2,,,
O=C(O)c1sc(-c2ccc(C(F)(F)F)cc2)cc1NC(=O)c1c(F)cccc1F [compound 53470440],,,44.8,23.7,3.8,
O=C(Nc1cc(-c2ccc(C(F)(F)F)cc2)sc1C(=O)O)c1cc2ccccc2o1 [compound 53470417],,,72.1,> 100,7.17,
CCCOc1ccc(-c2cc(NC(=O)c3c(F)cc(F)cc3F)c(C(=O)O)s2)cc1 [compound 56643023],8.06,< 0.625,85.6,,,
O=C(Nc1cc(-c2ccc(OCCCC(F)(F)F)cc2)sc1C(=O)O)c1cc(Br)c(Br)o1 [compound 56643009],> 100,< 2.5,251,,,
